Article PMC12848304, “Small-molecule inhibitor of C‑terminal HSP90 dimerization modulates autophagy and functions synergistically with mTOR inhibition to kill cisplatin-resistant cancer cells” (Cell Death & Disease, 2025)

How the values were obtained:
[1] = target: T1, HSP90β (Homo sapiens, UniProt P08238); test: TR-FRET HSP90 CTD/PPID interaction assay ([…]); format: biochemical
T1 construct: gene HSP90AB1; C-terminal domain (CTD); with PPID

[2] = target: T2, HSP90α CTD (Homo sapiens, UniProt P07900); test: thermal shift assay (SYPRO orange, […]) with recombinant HSP90α CTD; supported by BS3 cross-linking (loss of CTD dimers) and CETSA; format: binding; conditions: read-out: thermal shift assay (SYPRO orange, 100 μM) with recombinant HSP90α CTD; supporte
T2 construct: gene HSP90AA1; recombinant C-terminal domain (CTD)
T2 sequence (P07900 626-732 limits assumed): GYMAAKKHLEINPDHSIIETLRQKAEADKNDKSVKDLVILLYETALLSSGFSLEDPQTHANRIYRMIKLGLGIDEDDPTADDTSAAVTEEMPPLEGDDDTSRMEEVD

T1 sequence (P08238 553-724 limits assumed): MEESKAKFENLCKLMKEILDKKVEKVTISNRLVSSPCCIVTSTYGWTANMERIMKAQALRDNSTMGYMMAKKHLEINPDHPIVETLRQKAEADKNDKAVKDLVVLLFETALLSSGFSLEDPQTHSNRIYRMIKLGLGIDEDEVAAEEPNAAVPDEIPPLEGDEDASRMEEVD
T1 sequence (Q08752 2-370 partner): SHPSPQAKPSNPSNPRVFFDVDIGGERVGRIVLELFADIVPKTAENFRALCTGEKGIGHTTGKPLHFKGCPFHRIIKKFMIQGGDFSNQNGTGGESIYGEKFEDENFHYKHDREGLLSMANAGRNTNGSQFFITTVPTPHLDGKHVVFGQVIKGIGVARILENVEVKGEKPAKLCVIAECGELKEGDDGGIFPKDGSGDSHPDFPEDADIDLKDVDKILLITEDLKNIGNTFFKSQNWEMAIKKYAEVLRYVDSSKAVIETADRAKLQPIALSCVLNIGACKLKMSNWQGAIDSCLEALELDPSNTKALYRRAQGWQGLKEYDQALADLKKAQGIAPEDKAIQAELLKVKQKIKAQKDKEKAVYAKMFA

- ΔTm at 100 µM [2]: -8.43 ± 2.75 °C
Compound: CCC(C)n1c(C(=O)Nc2cnc(C(=O)NC)n(CC(C)C)c2=O)ncc(NC(=O)c2ncc(N)c(=O)n2Cc2ccc(OC)cc2)c1=O (centres unmarked) [compound 2, VWK147]
- TR-FRET HSP90 CTD/PPID interaction assay (1 mM) [1]: VWK147 disrupts the binding of Peptidyl prolyl isomerase D (PPID, CTD-specific co-chaperone) to the CTD of recombinant HSP90β
